Laboratory results published in ChEMBL document CHEMBL1141539, “Neutral 5-substituted 4-indazolylaminoquinazolines as potent, orally active inhibitors of erbB2 receptor tyrosine kinase” (Bioorg Med Chem Lett, 2008).
In brackets after ≈: the same amount, converted by molar mass. One block for each compound: values may come before it.

Key:
[1] = Solubility in aqueous phosphate buffer at pH 7.4 after 24 hrs; type: physicochemical
[2] = system: Phospholipidosis; experiment: In vivo phospholipidosis in rat; type: ADME, organism-based
[3] = Volume of distribution at steady state in dog at 1 mg/kg, iv and 2 mg/kg, po; type: ADME, organism-based, Canis lupus familiaris; conditions: in vivo, read-out: Vdss
[4] = Volume of distribution at steady state in rat at 1 mg/kg, iv and 2 mg/kg, po; type: ADME, organism-based; conditions: in vivo, read-out: Vdss
[5] = Oral bioavailability in rat at 2 mg/kg; type: ADME, organism-based; conditions: in vivo
[6] = Oral bioavailability in dog at 2 mg/kg, po; type: ADME, organism-based, Canis lupus familiaris; conditions: in vivo
[7] = Distribution coefficient, log D at pH 7.4; type: physicochemical; conditions: octanol/water
[8] = Permeability across dog MDCK-MDR cell membrane; type: ADME, cell-based, Canis lupus familiaris; conditions: MDCK-MDR1

solubility at 24 h [1]: 44 µM (≈ 20.8 µg/mL)
Compound: C[C@@H](Oc1cccc2ncnc(Nc3ccc4c(cnn4Cc4cscn4)c3)c12)C(=O)N(C)C

Vd [3]: 2.3 L/kg
Vd [4]: 2.1 L/kg
bioavailability [5]: 36%
bioavailability [6]: 40%
solubility at 24 h [1]: 270 µM (≈ 126 µg/mL)
logD [7]: 2.9
Compound: C[C@@H](Oc1cccc2ncnc(Nc3ccc4c(cnn4Cc4ccccn4)c3)c12)C(=O)N(C)C

solubility at 24 h [1]: 29 µM (≈ 13.7 µg/mL)
Compound: C[C@@H](Oc1cccc2ncnc(Nc3ccc4c(cnn4Cc4nccs4)c3)c12)C(=O)N(C)C

solubility at 24 h [1]: 3 µM (≈ 1.45 µg/mL)
Compound: C[C@@H](Oc1cccc2ncnc(Nc3ccc4c(cnn4Cc4cccc(F)c4)c3)c12)C(=O)N(C)C

Second part, the compound before the results:

Compound: CNC(=O)[C@@H](C)Oc1cccc2ncnc(Nc3ccc4c(cnn4Cc4ccccn4)c3)c12
solubility at 24 h [1]: 4 µM (≈ 1.81 µg/mL)

Compound: C[C@@H](Oc1cccc2ncnc(Nc3ccc4c(cnn4Cc4nccs4)c3)c12)C(=O)N1CCOCC1
Phospholipidosis [2]: Not Active
Vd [3]: 3.1 L/kg
Vd [4]: 2 L/kg
bioavailability [5]: 50%
bioavailability [6]: 36%
solubility at 24 h [1]: 101 µM (≈ 52.1 µg/mL)
logD [7]: 2.6
Papp [8]: 10 ×10⁻⁶ cm/s

Compound: C[C@@H](Oc1cccc2ncnc(Nc3ccc4c(cnn4Cc4ccccn4)c3)c12)C(N)=O
solubility at 24 h [1]: 3 µM (≈ 1.32 µg/mL)
